Publication PMC6689897, “Drugging an undruggable pocket on KRAS” (Proceedings of the National Academy of Sciences of the …, 2019)
Values joined by “and” are separate entries in the source; they are usually repeats but may differ in a detail not shown here. Equal entries are not always repeated. Where two headings read alike, the source gives them in different places.

Assays:
Assay in all cases: ITC
Format in all cases: binding
GCP-HRASwt = GCP-HRASwt (Homo sapiens, UniProt P01112); settings: 25°C
Method: (§1) 80 difference spectrum. Mixtures of four fragments (each at 250 µM) were incubated in 25
(§2) 82 a mixture of GCP-KRASG12D and GDP-KRASG12V (each 4 µM). Binders were identified
(§3) 83 by comparing pre-recorded reference spectra with the STD difference spectrum.
(§4) 84 Deconvolution and confirmation of primary FBS hits obtained from STD-NMR and
(§5) 85 MST was performed using 2D 1H/15N TROSY NMR experiments(2) collected on a
(§6) 86 Bruker Avance III 600 MHz spectrometer equipped with a 5 mm z-gradient TCI cryo-
(§7) 87 probe. Samples were prepared directly before data acquisition using a Tecan Freedom
(§8) 88 Evo pipetting system and delivered by a Bruker Sample Rail to the magnet. Each sample
(§9) 89 contained either 50 µM 15N labeled GDP-KRASG12D or GCP-KRASG12D in 25 mM Tris-
(§10) 90 d11, 100 mM NaCl, 2 mM MgCl2, 0.5 mM TCEP pH 7.4 and 8% (v/v) D2O. Proteins
(§11) 91 were incubated with 500 µM fragment in a 2.5 mm NMR tube at 298K and 1%
(§12) 92 d6DMSO. Spectra were recorded with 32 transients and 64 data points in the indirect
(§13) 93 dimension. Processing and analysis were accomplished with Topspin 3.0 (Bruker
(§14) 94 BioSpin). Binders were identified by manual comparison of spectra in the presence of a
(§15) 95 fragment and the respective reference spectrum. All confirmed binders to 15N labeled
(§16) 96 GDP-KRASG12D show also chemical shift perturbations in the presence of 15N labeled
(§17) 97 GDP-KRASG12V and are therefore non-selective.
(§18) 98 Measurement of dissociation constants KD for the compounds synthesized. NMR
(§19) 99 was initially the only method that could provide K Ds for the weakly binding molecules to
(§20) 100 support compound optimization. 1H/15N SoFast HMQC experiments(3) were recorded in
(§21) 101 3mm NMR tubes (170µL filling) at a protein concentration of 70-100µM. Spectra were
(§22) 102 recorded on a Avance III 700MHz spectrometer equipped with a cryogenically cooled
(§23) 103 5mm TCI probe and 48 scans, 128 f1 increments and 2k data points in f2. Total
(§24) 104 acquisition time was 22 minutes. 4 – 6 titration points were performed w ith individual
(§25) 105 samples for each titration point made from 50mM DMSO -d6 stock solutions. Total
(§26) 106 DMSO-d6 concentration was kept constant by backfilling every sample to a total of 4%
(§27) 107 DMSO. KDs were calculated from the differences in chemical shift induced by t he small
(§28) 108 molecules upon interacting with the protein. Average chemical shifts from the 1H and 15N
(§29) 109 dimension were calculated according to the following equation:
(§30) 110 ∆δobs = √[δH2 + (α ∙δN)2] with α set to 0.14
(§31) 111 The Δδobs values at the respective ligand concentrations and the total concentration
(§32) 112 of protein allow a fit to the KD value of the ligand as long as it is binding under fast
(§33) 113 exchange conditions as was the case for most of the compounds tested.(4) Usually Δδobs
(§34) 115 following equation was used to determine the individual KDs:
(§35) 116 ∆δobs = ∆δmax [([P]t + [L]t + KD) − [([P]t + [L]t + KD)2 − 4([P]t[L]t)]1/2]/2[P]t
(§36) 119 Calorimetric experiments were performed on a Microcal PEAQ-ITC calorimeter
(§37) 120 (MicroCalTM, LLC Northampton, MA). Protein solutions were measured in 20 mM
(§38) 121 HEPES, 150 mM NaCl, 3% DMSO, pH 7.5. All measurements were carried out at 25°C.
(§39) 122 Titrations were performed in inverse mode. The cell was loaded with compound solutions
(§40) 123 in the range of 10 to 100 µM. All injections were performed using an initial injection of
(§41) 124 0.5 μL followed by 19 injections of 2 μL of protein in the range of 130-500 µM. The data
(§42) 125 were analyzed with the MicroCal PEAQ-ITC analysis software package. The first data
(§43) 126 point was excluded from the analysis. Thermodynamic parameters were calculated (ΔG =
(§44) 127 ΔH - TΔS = -RTlnKB, where ΔG, ΔH and ΔS are the changes in free energy, enthalpy and
(§45) 128 entropy of binding, respectively).
(§46) 130 Protein purification, nucleotide exchange and crystallization
(§47) 131 The KRAS construct, based on uniprot identifier P01116 -2 (KRAS4-B) amino acids
(§48) 134 G12V) were expressed with an N-terminal His6-tag followed by a TEV (tobacco etch

GCP-KRASG12D = GCP-KRASG12D (Homo sapiens, UniProt P01116, G12D)
Method: as §1, §2, §3, §4, §5, §6, §7, §8, §9, §10, §11, §12, §13, §14, §15, §16, §17, §18, §19, §20, §21, §22, §23, §24, §25, §26, §27, §28, §29, §30, §31, §32, §33, §34, §35, §36, §37, §38, §39, §40, §41, §42, §43, §44, §45, §46, §47, §48

GCP-KRASwt = GCP-KRASwt (Homo sapiens, UniProt P01116); settings: for Kd: 25°C
Method: as §1, §2, §3, §4, §5, §6, §7, §8, §9, §10, §11, §12, §13, §14, §15, §16, §17, §18, §19, §20, §21, §22, §23, §24, §25, §26, §27, §28, §29, §30, §31, §32, §33, §34, §35, §36, §37, §38, §39, §40, §41, §42, §43, §44, §45, §46, §47, §48

GCP-NRASwt = GCP-NRASwt (Homo sapiens, UniProt P01111, C118S); settings: 25°C
Method: as §1, §2, §3, §4, §5, §6, §7, §8, §9, §10, §11, §12, §13, §14, §15, §16, §17, §18, §19, §20, §21, §22, §23, §24, §25, §26, §27, §28, §29, §30, §31, §32, §33, §34, §35, §36, §37, §38, §39, §40, §41, §42, §43, §44, §45, §46, §47, §48

GDP-HRASwt = GDP-HRASwt (Homo sapiens, UniProt P01112); settings: 25°C
Method: as §1, §2, §3, §4, §5, §6, §7, §8, §9, §10, §11, §12, §13, §14, §15, §16, §17, §18, §19, §20, §21, §22, §23, §24, §25, §26, §27, §28, §29, §30, §31, §32, §33, §34, §35, §36, §37, §38, §39, §40, §41, §42, §43, §44, §45, §46, §47, §48

GDP-KRASG12D = GDP-KRASG12D (Homo sapiens, UniProt P01116, G12D); settings: 25°C
Method: as §1, §2, §3, §4, §5, §6, §7, §8, §9, §10, §11, §12, §13, §14, §15, §16, §17, §18, §19, §20, §21, §22, §23, §24, §25, §26, §27, §28, §29, §30, §31, §32, §33, §34, §35, §36, §37, §38, §39, §40, §41, §42, §43, §44, §45, §46, §47, §48

GDP-KRASwt = GDP-KRASwt (Homo sapiens, UniProt P01116); settings: 25°C
Method: as §1, §2, §3, §4, §5, §6, §7, §8, §9, §10, §11, §12, §13, §14, §15, §16, §17, §18, §19, §20, §21, §22, §23, §24, §25, §26, §27, §28, §29, §30, §31, §32, §33, §34, §35, §36, §37, §38, §39, §40, §41, §42, §43, §44, §45, §46, §47, §48

GDP-NRASwt = GDP-NRASwt (Homo sapiens, UniProt P01111, C118S); settings: for Kd: 25°C
Method: as §1, §2, §3, §4, §5, §6, §7, §8, §9, §10, §11, §12, §13, §14, §15, §16, §17, §18, §19, §20, §21, §22, §23, §24, §25, §26, §27, §28, §29, §30, §31, §32, §33, §34, §35, §36, §37, §38, §39, §40, §41, §42, §43, §44, §45, §46, §47, §48

[1] = 25°C, read-out: KD(ITC) GCP-KRASG12D

GCP-KRASwt, sequence (P01116 1-169 isoform P01116-2): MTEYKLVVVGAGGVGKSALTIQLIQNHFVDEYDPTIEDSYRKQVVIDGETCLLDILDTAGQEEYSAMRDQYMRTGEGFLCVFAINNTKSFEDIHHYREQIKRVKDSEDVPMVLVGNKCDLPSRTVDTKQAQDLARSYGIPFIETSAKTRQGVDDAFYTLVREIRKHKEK
GCP-KRASG12D, sequence (P01116 1-169 isoform P01116-2 G12D): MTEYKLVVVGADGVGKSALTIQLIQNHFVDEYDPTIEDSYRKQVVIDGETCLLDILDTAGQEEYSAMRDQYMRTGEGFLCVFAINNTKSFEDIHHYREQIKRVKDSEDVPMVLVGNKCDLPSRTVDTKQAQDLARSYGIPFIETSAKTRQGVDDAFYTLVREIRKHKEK
GDP-NRASwt, sequence (P01111 1-172 C118S): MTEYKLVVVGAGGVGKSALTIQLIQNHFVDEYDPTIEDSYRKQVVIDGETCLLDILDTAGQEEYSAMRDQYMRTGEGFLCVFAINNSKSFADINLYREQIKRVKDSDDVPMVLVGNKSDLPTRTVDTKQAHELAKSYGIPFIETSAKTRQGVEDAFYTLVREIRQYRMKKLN
GDP-KRASwt, sequence (P01116 1-169 isoform P01116-2): as the sequence (P01116 1-169 isoform P01116-2) above
GDP-KRASG12D, sequence (P01116 1-169 isoform P01116-2 G12D): as the sequence (P01116 1-169 isoform P01116-2 G12D) above
GCP-NRASwt, sequence (P01111 1-172 C118S): as the sequence (P01111 1-172 C118S) above
GDP-HRASwt, sequence (P01112 1-166): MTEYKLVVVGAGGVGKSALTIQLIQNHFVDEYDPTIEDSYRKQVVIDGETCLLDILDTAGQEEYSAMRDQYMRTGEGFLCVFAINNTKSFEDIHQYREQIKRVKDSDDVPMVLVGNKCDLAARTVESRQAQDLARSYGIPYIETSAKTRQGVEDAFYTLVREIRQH
GCP-HRASwt, sequence (P01112 1-166): as above

SMILES | Kd (GCP-HRASwt) [µM] | Kd (GCP-KRASG12D; [1]) | Kd (GCP-KRASG12D; read-out: KD GTP-KRAS^G12D as measured by ITC) [µM] | selectivity of binding to GCP-KRAS^wt (active KRAS^wt) (GCP-KRASwt) | Kd (GCP-KRASwt) [µM] | Kd (GCP-NRASwt) [µM] | Kd (GDP-HRASwt) [µM] | Kd (GDP-KRASG12D) [µM] | Kd (GDP-KRASwt) [µM] | selectivity window to inactive NRAS^wt (GDP-NRASwt) | Kd (GDP-NRASwt) [µM]
Cn1cnc(Cn2ccc3ccc(CNCc4[nH]c5ccccc5c4[C@H]4NC(=O)c5ccc(O)cc54)cc32)c1 [Compound 1] | 0.57 | 0.74 µM | 0.75 | 5- to 10 fold and 10 fold | 7.5 | 1.3 | 2.5 | 2 | 1.1 | 5- to 10 fold | 8.3
CN(C)Cc1[nH]c2ccccc2c1[C@H]1NC(=O)c2ccc(O)cc21 [Compound 18] | 6.7 | 22 µM and 20 µM and 20.4 µM | – | – | 49 | 33 | 54 | 29 | 15 | – | 33
